Laboratory results taken from patent US20060002934A1 (priority 2002, published 2006).
“Also recorded” adds a separate entry of the source.

Key:
Format in all cases: cell-based, human
[1] = test system: MDA-MB-435S cells expressing del 8 E-cadherin; experiment: Cell motility by time-lapse laser scanning microscopy, del 8 E-cadherin transfectants; settings: del 8 E-cadherin cells on collagen I, Tyrphostin AG 1478 6.3 μM; for cell motility enhanced by mutant E-cadherin (effect of inhibitor): 7 h, PD 98059 50 μM, LY 294002 40 μM
Experimental: For time-lapse laser scanning microscopy, cells were cultivated in a microscope-coupled incubation chamber (Zeiss, Jena, Germany) at 37° C. under 5% CO2. Cells were seeded at a density of 2×10^5 cells per 3.5-cm in plates with a glass bottom which were purchased either uncoated or coated with poly-lysine from MatTek Corporation (Ashland, Mass., USA). Uncoated plates were coated for 4 h at 37° C. with collagen I (100 μg/ml, Sigma, Deisenhofen, Germany) or overnight at 4° C. with fibronectin (10 μg/ml, Sigma) or vitronectin (10 μg/ml, Becton Dickinson, Bedford, USA). Kinase inhibitors were used at final concentrations of 50 μM (PD 98059, Sigma, Deisenhofen, Germany), 40 μM (LY 294002, Calbiochem, Schwalbach, Germany), or 6.3 μM (Tyrphostin AG 1478, Sigma). […] Phase contrast images were taken at 3 min intervals with an Axiovert laser scanning microscope LSM 510 (Zeiss) with lens PNF 20×/0.4 PH2 and a helium-neon laser at 543 nm in transmission scanning mode. The percentage of motile cells was measured by drawing the outlines of cells on the screen and counting the cells which moved completely out of the initial area within the recording time of 7 h. Semiautomatic tracing of cell nuclei using the laser scanning microscope software from Zeiss allowed determination of the individual cell speed. The calculation of the cell speed is based on the division of the displacement of an individual cell divided by the total time of recording. Cells were brought in suspension by disruption of cell-cell and cell-matrix interactions and seeded on glass plates precoated with collagen type 1. Cell motility was analyzed by long-term recordings of a duration of 7 h starting 2 h after plating using a laser scanning microscope coupled with a temperature- and CO2-controlled incubation chamber. Motile cells were defined as cells which were able to move out of their initial space within 7 h according to a method described by Marks (J. Cell Bioll. 112 (1991), 149-158). The percentage of motile cells was similar in non-transfected (30%) or wt E-cadherin expressing MDA-MB-435S cells (26%) but elevated upon expression of mutant E-cadherin: […] (52%), […] (58%) and p8 (45%, FIG. 1B). It has been shown for a number of cell lines that the motile behavior of individual cells is variable and therefore it is advisable to investigate a large number of cells to obtain a reliable determination of cellular velocity (Hartmann-Petersen, Cytometry 40 (2000), 260-270). In order to determine the motility of individual cells, the center of the nucleus was semiautomatically traced and the speed of 60 cells per cell line derived from at least three independent experiments was calculated. The range between the minimal and the maximal cell speed and the median of cell speeds were used as motility parameters. […]

p44/42 MAP kinase = experiment: Western blot with phosphorylation-specific antibodies, MAP kinase; settings: data not shown
Experimental: (§1) For immunoblot analysis, cells were seeded at a density of 6×10^5 cells per 10 cm tissue culture dish and lysed 5 h later with 500 μL-CAM buffer (140 mM NaCl, 4.7 mM KCl, 0.7 mM MgSO4, 1.2 mM CaCl2, 10 mM Hepes pH 7.4, containing 1% (v/v) Triton-X-100 and 1 mM phenylmethylsulfonylfluoride (PMSF) (Cunningham, Proc. Acad. Sci. USA 81 (1984), 5787-5791). Proteins were separated by 7% SDS-polyacrylamide gel electrophoresis followed by transfer to nitrocellulose (Schleicher & Schuell, Dassel, Germany) or PVDF (Bio-Rad Laboratories, München, Germany) membranes. Polyclonal antibodies against total or activated kinases were purchased from New England Biolabs (Frankfurt, Germany): Akt antibody (#9272), detecting total Akt kinase levels, phospho-Akt antibody (Ser473, #9270), detecting phosphorylated Ser 473 in Akt1, Akt2 and Akt3, MAP kinase antibody (# 9102), detecting total MAP kinase, phospho-p44/42 MAP kinase (#9101) detecting activated MAP kinase phosphorylated at Thr 202/[…]. Monoclonal antibody against p53 was purchased from Oncogene Research Products (Ab-6, #OP43). Polyclonal antibodies against total or activated p38 MAP kinases were purchased from New England Biolabs. Phospho-p38 MAP kinase polyclonal antibody (#9211) detects phosphorylated threonine 180 and tyrosine 182 p38 MAP kinase (#9212). […]

[2] = test system: p8-EcadEGFP expressing MDA-MB-435S cells; experiment: Time-lapse imaging of motility and E-cadherin localization, p8-EcadEGFP transfectants
Experimental: (§2) For time-lapse laser scanning microscopy, cells were cultivated overnight in a microscope-coupled incubation chamber (Zeiss, Jena, Germany) at 37 °C under 5% CO2. Cells were seeded at a density of 1×10^5 cells per 3.5-cm in collagen I-coated plates with a glass bottom which were purchased from MatTek Corporation (Ashland, Mass., USA). Uncoated plates were coated for 4 h at 37° C. with collagen I (100 μg/ml). EGFR kinase inhibitor Tyrphostin AG 1478 (Sigma, Deisenhofen, Germany) was used at a final concentration of 6.3 μM. […] Phase contrast images were taken at 2-3 min intervals with an Axiovert laser scanning microscope LSM 510 (Zeiss) with lens PNF 63× (oil) and an argon laser at 488 nm with a transmission filter of 515 nm.
(§3) To investigate the temporal localization of mutant E-cadherin during cell migration, EcadEGFP transfected cells were cultivated in an incubation chamber coupled with a Zeiss Axiovert 100 microscope. Cells transfected with the vector pEGFP-N2 Vektor or the different EcadEGFP constructs (wt-EcadEGFP and p8-EcadEGFP), were seeded on collagen I coated dishes with glas bottom.

Akt/PKB = experiment: Western blot with phosphorylation-specific antibodies, Akt/PKB; settings: data not shown
Experimental: as §1

[3] = test system: wt-EcadEGFP expressing MDA-MB-435S cells; experiment: Time-lapse imaging of motility and E-cadherin localization, wt-EcadEGFP transfectants; settings: for cell motility (range of cell speeds) / cell paths (range): wt-EcadEGFP cells, 10 cells, 4 h
Experimental: as §2, §3

[4] = test system: MDA-MB-435S cells expressing wt E-cadherin; experiment: Cell motility by time-lapse laser scanning microscopy, wt E-cadherin transfectants
Experimental: For time-lapse laser scanning microscopy, cells were cultivated in a microscope-coupled incubation chamber (Zeiss, Jena, Germany) at 37° C. under 5% CO2. Cells were seeded at a density of 2×10^5 cells per 3.5-cm in plates with a glass bottom which were purchased either uncoated or coated with poly-lysine from MatTek Corporation (Ashland, Mass., USA). Uncoated plates were coated for 4 h at 37° C. with collagen I (100 μg/ml, Sigma, Deisenhofen, Germany) or overnight at 4° C. with fibronectin (10 μg/ml, Sigma) or vitronectin (10 μg/ml, Becton Dickinson, Bedford, USA). Kinase inhibitors were used at final concentrations of 50 μM (PD 98059, Sigma, Deisenhofen, Germany), 40 μM (LY 294002, Calbiochem, Schwalbach, Germany), or 6.3 μM (Tyrphostin AG 1478, Sigma).
Phase contrast images were taken at 3 min intervals with an Axiovert laser scanning microscope LSM 510 (Zeiss) with lens PNF 20×/0.4 PH2 and a helium-neon laser at 543 nm in transmission scanning mode. The percentage of motile cells was measured by drawing the outlines of cells on the screen and counting the cells which moved completely out of the initial area within the recording time of 7 h. […]
Cells were brought in suspension by disruption of cell-cell and cell-matrix interactions and seeded on glass plates precoated with collagen type 1. Cell motility was analyzed by long-term recordings of a duration of 7 h starting 2 h after plating using a laser scanning microscope coupled with a temperature- and CO2-controlled incubation chamber. […]
It has been shown for a number of cell lines that the motile behavior of individual cells is variable and therefore it is advisable to investigate a large number of cells to obtain a reliable determination of cellular velocity (Hartmann-Petersen, Cytometry 40 (2000), 260-270). In order to determine the motility of individual cells, the center of the nucleus was semiautomatically traced and the speed of 60 cells per cell line derived from at least three independent experiments was calculated. […]

[5] = p8-EcadEGFP cells, collagen I, Tyrphostin AG1478 6,3 μM, 10 cells, 4 h
[6] = collagen I, Tyrphostin AG1478 6,3 μM
[7] = serum starved overnight, EGF 100 ng/ml

Compound: COc1cccc(-c2cc(=O)c3ccccc3o2)c1N [PD 98059]
- cell motility enhanced by mutant E-cadherin (effect of inhibitor) [1]: less effective; also recorded: no inhibitory effect
- EGF-induced activation of MAP kinase (phosphorylation) (p44/42 MAP kinase): effectively blocked

Compound: COc1cc2ncnc(Nc3cccc(Cl)c3)c2cc1OC [Tyrphostin AG 1478]
- cell motility enhanced by mutant E-cadherin (effect of inhibitor) [1]: sensitive
- median and range of cell speeds ([1]; traced 7 h): decreased to the level of wt E-cadherin expressing cells
- percentage of motile cells ([1]; traced 7 h): decreased to the level of wt E-cadherin expressing cells
- localization of p8-EcadEGFP ([2]; Tyrphostin AG1478 6,3 μM): also localized perinuclear and at cell cell adhesion sites; also recorded: localized at cell cell contacts and perinuclear
- cell motility (range of cell speeds) [2, 5]: 5,7-20 μm/h
- cell paths (range) [2, 5]: 22,8-80,3 μm
- EGF-induced activation of Akt/PKB (Akt/PKB): completely blocked
- EGF-induced activation of MAP kinase (phosphorylation) (p44/42 MAP kinase): completely blocked
- localization of wt-EcadEGFP ([3]; Tyrphostin AG1478 6,3 μM): not significantly changed; also recorded: no influence
- cell motility (range of cell speeds) [3, 6]: 1,3-8,8 μm/h
- cell paths (range) [3, 6]: 15,1-35,2 μm

Compound: epidermal growth factor [EGF]
- percentage of motile cells ([4]; wt E-cadherin cells on collagen I, 7 h, EGF 100 ng/ml): increased to the level of del 8 E-cadherin expressing cells
- cellular motility ([4]; wt E-cadherin cells, EGF treatment): enhanced cellular motility
- cell morphology ([4]; wt or del 8 E-cadherin cells on collagen I, 2 h after plating, EGF 100 ng/ml (FIG. 5C)): developed filopodia and lost cell to cell contacts
- effect on the motility of p8-EcadEGFP transfected cells ([2]; EGF 100 ng/ml, p=0,364 Kruskal Wallis Test): only minor effects
- cell paths (range) ([2]; p8-EcadEGFP cells, serum starved overnight, EGF 100 ng/ml, 10 cells, 4 h): 19,7-97,2 μm
- localization of p8-EcadEGFP ([2]; serum starved, EGF 100 ng/ml): detectable at the cell edges and in lamellipodiae and at cell cell contact sites; also recorded: no influence
- cell motility (range of cell speeds) [3, 7]: 3,8-15,6 μm/h
- cell paths (range) [3, 7]: 15,1-62,4 μm
